≈ marks a conversion by molar mass, not a printed value.
System: Vaccinia virus
Test: Antiviral activity against Vaccinia virus infected in human HEL cells assessed as protection against virus-induced cytopathogenicity after 2 days
Type: functional, organism-based
Conditions: Orthopoxvirus vaccinia, 48 h

SMILES | EC50 [µg/mL]
O=c1c2ccccc2nc(-c2ccccc2)n1/N=C/c1ccccc1O | 0.8 (≈ 2.34 µM)
O=c1c2ccccc2nc(-c2ccccc2)n1/N=C/c1cccc([N+](=O)[O-])c1 | > 20
COc1ccc(/C=N/n2c(-c3ccccc3)nc3ccccc3c2=O)cc1 | 9 (≈ 25.3 µM)
O=c1c2ccccc2nc(-c2ccccc2)n1/N=C/c1ccccc1 | 9 (≈ 27.7 µM)
O=c1c2ccccc2nc(-c2ccccc2)n1/N=C/c1ccc(O)cc1 | 12 (≈ 35.2 µM)
C/C(=N\n1c(-c2ccccc2)nc2ccccc2c1=O)c1ccccc1 | > 100
C/C(=N\n1c(-c2ccccc2)nc2ccccc2c1=O)c1ccc(O)cc1 | > 100
O=c1c2ccccc2nc(-c2ccccc2)n1/N=C/c1ccc(Cl)cc1 | 20 (≈ 55.6 µM)
COc1ccc(/C=N/n2c(-c3ccccc3)nc3ccccc3c2=O)cc1O | 20 (≈ 53.9 µM)
COc1ccccc1/C=N/n1c(-c2ccccc2)nc2ccccc2c1=O | > 20
O=c1[nH]c(=O)n([C@H]2C[C@H](O)[C@@H](CO)O2)cc1/C=C/Br [BRIVUDINE] | 4 (≈ 12 µM)
Nc1ccn(C[C@@H](CO)OCP(=O)(O)O)c(=O)n1.O.O [CIDOFOVIR] | 8
Nc1nc2c(ncn2COC(CO)CO)c(=O)[nH]1 [GANCICLOVIR] | > 100
NC(=O)c1ncn([C@@H]2O[C@H](CO)[C@@H](O)[C@H]2O)n1 [RIBAVIRIN] | > 250
